26 compounds from ChEMBL document CHEMBL1133140, “Computer-aided design, synthesis and biological assay of p-methylsulfonamido phenylethylamine analogues” (2000) can be followed below.

Active and inactive are the calls of the source. No cut-off for these calls is given here.

Assay [1] in a line: Negative log of concentration (-logC)for delaying functional refractory period 10 ms in animal atrium. Details: species or system Cardiac atrium.
The nature of assay [2]: Tested for its effective concentration for delaying functional refractory period 10 ms in animal atrium. Also on record: species or system Cardiac atrium.
The nature of assay [3]: Tested for its maximal percent change of force of constriction in uM. It is filed as functional.
A short description of assay [4]: The compound was tested for its maximal percent change of delaying functional refractory period in uM; no effect.
Assay [5] in a line: Tested for its maximal percent change of heart rate in uM. In kind it is functional.
A short description of assay [6]: Tested for its maximal percent change of delaying functional refractory period in uM.
The nature of assay [7]: The compound was tested for its maximal percent change of force of constriction in uM; no effect. In kind it is functional.

For the compound `CS(=O)(=O)Nc1ccc(CCNCCOc2ccc(NS(C)(=O)=O)cc2)cc1` [N-DESMETHYLDOFETILIDE], in assay [1], the EA turned out to be 7.63. In addition, the Effective concentration in assay [2] stood at 0.023 µM.

In the case of `CN(CCc1ccc(NS(C)(=O)=O)cc1)Cc1ccccc1`, the EA in assay [1] was 6.34. The Effective concentration in assay [2] amounted to 0.372 µM.

In assay [1], `COc1ccc(CN(CCc2ccc(N(S(C)(=O)=O)S(C)(=O)=O)cc2)Cc2ccccc2)cc1` showed an EA of 6.1. The same compound had an Effective concentration in assay [2] of 0.79 µM.

For the compound `CS(=O)(=O)Nc1ccc(CCN(CCOc2ccccc2)Cc2ccccc2)cc1`, the Max delta FC in assay [3] came to 25%. Besides, the “Max delta FRP” value in assay [4] is “inactive”. Also, the “Max delta HR” value in assay [5] was -31.8%.

For `C=CCN(CCOc1ccccc1)CCc1ccc(NS(C)(=O)=O)cc1`, the Max delta FC in assay [3] came to 16.7%. This compound also displayed a Max delta FRP in assay [6] of 9.77%. Also, the “Max delta HR” value in assay [5] was -15.18%.

In turn, `CN(CCc1ccc(NS(C)(=O)=O)cc1)C1CCCCC1` gave an EA in assay [1] of 5.32. The compound further displayed an Effective concentration in assay [2] of 4.789 µM.

Consider `CS(=O)(=O)Nc1ccc(CCN(CCOc2ccc(NS(C)(=O)=O)cc2)Cc2ccccc2)cc1`, for which the EA in assay [1] amounted to 7.8. The same compound showed an Effective concentration in assay [2] of 0.016 µM.

On to `CN(CCc1ccc(NS(C)(=O)=O)cc1)Cc1ccc2c(c1)OCO2`, for which, in assay [1], the EA worked out at 6.15. This compound also gave an Effective concentration in assay [2] of 0.89 µM.

The compound `COc1ccccc1CN(CCc1ccc(NS(C)(=O)=O)cc1)Cc1ccccc1` returned an EA in assay [1] of 6.85. The same compound registered an Effective concentration in assay [2] of 0.141 µM.

`Cc1ccc(CN(CCc2ccc(N(S(C)(=O)=O)S(C)(=O)=O)cc2)Cc2ccccc2)cc1`: in assay [1], the EA is given as 6.21. In assay [2], this compound had an Effective concentration of 0.62 µM.

For the compound `CC(=O)N(CCOc1ccccc1)CCc1ccc(N(S(C)(=O)=O)S(C)(=O)=O)cc1`, the “Max delta FC” value in assay [7] was “inactive”. In addition, the “Max delta FRP” value in assay [4] was “inactive”. Besides, the “Max delta HR” value in assay [5] is reported as -20.51%.

For `Cc1ccc(CN(C)CCc2ccc(N(S(C)(=O)=O)S(C)(=O)=O)cc2)cc1`, in assay [1], the EA came out at 6.02. The same compound returned an Effective concentration in assay [2] of 0.953 µM.

In assay [1], `CS(=O)(=O)N(c1ccc(CCN(Cc2ccccc2)Cc2ccc3c(c2)OCO3)cc1)S(C)(=O)=O` returned an EA of 6.41. In assay [2], this compound yielded an Effective concentration of 0.38 µM.

In assay [1], `CS(=O)(=O)Nc1ccc(CCN(CCOc2ccc(NS(C)(=O)=O)cc2)Cc2ccc(Cl)cc2)cc1` registered an EA of 7.44. This compound yielded an Effective concentration in assay [2] of 0.037 µM.

`CN(CCOc1ccc(NS(C)(=O)=O)cc1)CCc1ccc(NS(C)(=O)=O)cc1` [DOFETILIDE] came in with an EA in assay [1] of 7.92. In assay [2], this compound showed an Effective concentration of 0.012 µM. Moreover, in assay [3], the Max delta FC is 17.1%. Further, the Max delta FRP in assay [6] is 24%. The “Max delta HR” value in assay [5] is recorded as -30.03%.

`CN(CCc1ccc(NS(C)(=O)=O)cc1)Cc1ccc(Cl)cc1` had an EA in assay [1] of 5.65. Also, the Effective concentration in assay [2] turned out to be 2.239 µM.

`CN(CCOc1ccccc1)CCc1ccc(NS(C)(=O)=O)cc1`: in assay [3], the Max delta FC was 20.2%. The Max delta FRP in assay [6] is 20.2%. Also, in assay [5], the “Max delta HR” value is -28.51%.

Consider `C=CCN(CCOc1ccccc1)CCc1ccc(N(S(C)(=O)=O)S(C)(=O)=O)cc1`, for which, in assay [3], the Max delta FC was 16.7%. For the same compound, the “Max delta FRP” value in assay [4] was “inactive”. Also, the “Max delta HR” value in assay [5] was -8.33%.

In assay [1], `CC(=O)N(CCOc1ccc(NS(C)(=O)=O)cc1)CCc1ccc(NS(C)(=O)=O)cc1` returned an EA of 7.67. Moreover, the Effective concentration in assay [2] came out at 0.021 µM.

For the compound `CN(CCOc1ccccc1)CCc1ccc(N(S(C)(=O)=O)S(C)(=O)=O)cc1`, the “Max delta FC” value in assay [7] was “inactive”. This compound returned a Max delta FRP in assay [6] of 12%. In addition, the “Max delta HR” value in assay [5] was -20.69%.

In the case of `COc1ccc(CN(C)CCc2ccc(N(S(C)(=O)=O)S(C)(=O)=O)cc2)cc1`, in assay [1], the EA came to 5.93. The compound further gave an Effective concentration in assay [2] of 1.17 µM.

Turning to `CS(=O)(=O)Nc1ccc(CCN(CCOc2ccccc2)C(=O)c2ccccc2)cc1`, the Max delta FC in assay [3] was 33.3%. The Max delta FRP in assay [6] was 5.33%. For the same compound, in assay [5], the “Max delta HR” value is recorded as -20%.

For the compound `CS(=O)(=O)N(c1ccc(CCN(CCOc2ccccc2)Cc2ccccc2)cc1)S(C)(=O)=O`, in assay [3], the Max delta FC amounted to 25%. In addition, the “Max delta FRP” value in assay [4] is “inactive”. Besides, the “Max delta HR” value in assay [5] is listed as -17.86%.

In the case of `CS(=O)(=O)Nc1ccc(CCN(Cc2ccccc2)Cc2ccccc2)cc1`, the EA in assay [1] is reported as 6.57. The compound further registered an Effective concentration in assay [2] of 0.27 µM.

As to `CC(=O)N(CCOc1ccccc1)CCc1ccc(NS(C)(=O)=O)cc1`, the Max delta FC in assay [3] was -37.9%. In addition, the Max delta FRP in assay [6] worked out at 58.4%. Further, the “Max delta HR” value in assay [5] is -46.17%.

Take `CS(=O)(=O)Nc1ccc(CCN(Cc2ccccc2)Cc2ccc(Cl)cc2)cc1`: in assay [1], the EA is 5.98. The compound also returned an Effective concentration in assay [2] of 1.05 µM.
